# Laboratory results published in ChEMBL document CHEMBL1201862, “PubChem BioAssay data set” (2004).
#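 The compound was tested at five concentrations on cells cultured in 96-well plates, with a 48-hour exposure period. Abbreviation: GI50, concentration required for 50% inhibition of growth.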 Activity calls are given as the source filed them. Cut-off read from the data, not from the text of the source: active = GI50 up to about 1.1 µM and inactive = higher.
# Columns and labels:
# Test in all cases: NCI tumour cell line growth inhibition, 48 h
# SNB-75 = tested on: SNB-75
# NCI-H226 = tested on: NCI-H226
# OVCAR-5 = tested on: OVCAR-5
# 786-0 = tested on: 786-0
# SK-MEL-2 = tested on: SK-MEL-2
# KM12 = tested on: KM12
# U-251 = tested on: U-251
# SNB-19 = tested on: SNB-19
# TK-10 = tested on: TK-10
# RXF 393 = tested on: RXF 393
# MOLT-4 = tested on: MOLT-4
# OVCAR-8 = tested on: OVCAR-8
# A549 = tested on: A549
# UACC-62 = tested on: UACC-62
# K562 = tested on: K562
# LOX IMVI = tested on: LOX IMVI
# SK-MEL-28 = tested on: SK-MEL-28
# SK-MEL-5 = tested on: SK-MEL-5
# HL-60 = tested on: HL-60
Structure (SMILES),GI50 (SNB-75),GI50 (NCI-H226),GI50 (OVCAR-5),GI50 (786-0),GI50 (SK-MEL-2),GI50 (KM12),GI50 (U-251),GI50 (SNB-19),GI50 (TK-10),GI50 (RXF 393),GI50 (MOLT-4),GI50 (OVCAR-8),GI50 (A549),GI50 (UACC-62),GI50 (K562),GI50 (LOX IMVI),GI50 (SK-MEL-28),GI50 (SK-MEL-5),GI50 (HL-60)
O=c1c2cccnc2ncn1CCCN1CCOCC1,> 100 µM (inactive),> 100 µM (inactive),> 100 µM (inactive),> 100 µM (inactive),> 10 µM (inactive),> 100 µM (inactive),> 100 µM (inactive),> 100 µM (inactive),> 100 µM (inactive),> 100 µM (inactive),> 10 µM (inactive),> 100 µM (inactive),> 100 µM (inactive),> 100 µM (inactive),> 100 µM (inactive),> 100 µM (inactive),> 100 µM (inactive),> 100 µM (inactive),–
COc1cc(-c2n[nH]cc2CCCC(=O)Nc2ccccc2[N+](=O)[O-])ccc1O,20.8 µM (inactive),> 100 µM (inactive),> 100 µM (inactive),> 100 µM (inactive),–,–,75.2 µM (inactive),–,> 100 µM (inactive),–,42.2 µM (inactive),> 100 µM (inactive),73.8 µM (inactive),67.9 µM (inactive),29.6 µM (inactive),> 100 µM (inactive),> 100 µM (inactive),61.4 µM (inactive),35.9 µM (inactive)
N#CCCN(c1ccc(/C=C2\N=C(c3ccc(Cl)cc3)OC2=O)cc1)S(=O)(=O)c1ccccc1,76 µM (inactive),96.2 µM (inactive),> 100 µM (inactive),> 100 µM (inactive),> 100 µM (inactive),> 100 µM (inactive),> 100 µM (inactive),> 100 µM (inactive),> 100 µM (inactive),–,> 100 µM (inactive),> 100 µM (inactive),> 100 µM (inactive),> 100 µM (inactive),> 100 µM (inactive),> 100 µM (inactive),> 100 µM (inactive),> 100 µM (inactive),> 100 µM (inactive)
CN(C)CCn1c2c3ccccc3ccc2c2oc(=O)c3ccccc3c21,2.3 µM (inactive),–,19.5 µM (inactive),2.36 µM (inactive),17.9 µM (inactive),6.71 µM (inactive),7.46 µM (inactive),10.3 µM (inactive),12.6 µM (inactive),–,2.62 µM (inactive),5.53 µM (inactive),3.88 µM (inactive),7.35 µM (inactive),4.48 µM (inactive),4.23 µM (inactive),5.68 µM (inactive),–,> 100 µM (inactive)
Cc1ccccc1C1CC(c2ccccc2)=NO1 (stereo unspecified),> 100 µM (inactive),> 100 µM (inactive),> 100 µM (inactive),> 100 µM (inactive),> 100 µM (inactive),> 100 µM (inactive),> 100 µM (inactive),> 100 µM (inactive),> 100 µM (inactive),–,> 100 µM (inactive),> 100 µM (inactive),> 100 µM (inactive),> 100 µM (inactive),> 100 µM (inactive),–,> 100 µM (inactive),> 100 µM (inactive),> 100 µM (inactive)
CCc1cccc(C)c1NC(=O)CCc1n[nH]c(=S)o1,> 100 µM (inactive),> 100 µM (inactive),> 100 µM (inactive),> 100 µM (inactive),–,> 100 µM (inactive),> 100 µM (inactive),> 100 µM (inactive),> 100 µM (inactive),–,> 100 µM (inactive),> 100 µM (inactive),–,> 100 µM (inactive),66.8 µM (inactive),–,> 100 µM (inactive),> 100 µM (inactive),> 100 µM (inactive)
Cc1cccc(C(C)(C)C)c1NC(=O)CCc1n[nH]c(=S)o1,> 100 µM (inactive),0.3 µM (active),> 100 µM (inactive),> 100 µM (inactive),–,> 100 µM (inactive),> 100 µM (inactive),> 100 µM (inactive),> 100 µM (inactive),–,> 100 µM (inactive),> 100 µM (inactive),> 100 µM (inactive),> 100 µM (inactive),43.2 µM (inactive),–,> 100 µM (inactive),> 100 µM (inactive),> 100 µM (inactive)
O=C(Cc1nc2ccccc2s1)C(=O)Nc1ccc(Cl)cc1,> 100 µM (inactive),> 100 µM (inactive),> 100 µM (inactive),> 100 µM (inactive),> 100 µM (inactive),> 100 µM (inactive),> 100 µM (inactive),> 100 µM (inactive),> 100 µM (inactive),–,> 100 µM (inactive),> 100 µM (inactive),> 100 µM (inactive),> 100 µM (inactive),> 100 µM (inactive),> 100 µM (inactive),> 100 µM (inactive),> 100 µM (inactive),> 100 µM (inactive)
CC1C=C(OC(=O)c2ccccc2)C(=O)C(n2cc(F)c(=O)[nH]c2=O)O1 (stereo unspecified),> 100 µM (inactive),> 100 µM (inactive),> 100 µM (inactive),69.8 µM (inactive),79.3 µM (inactive),46 µM (inactive),97.3 µM (inactive),> 100 µM (inactive),> 100 µM (inactive),–,51.5 µM (inactive),84.3 µM (inactive),38.2 µM (inactive),79.4 µM (inactive),76 µM (inactive),–,53.1 µM (inactive),91 µM (inactive),64.3 µM (inactive)
C/C(=C\c1ccccc1)C(=O)NCc1ccc(C(=O)NCCc2c[nH]c3ccccc23)cc1,> 100 µM (inactive),> 100 µM (inactive),> 100 µM (inactive),76 µM (inactive),> 100 µM (inactive),33.2 µM (inactive),> 100 µM (inactive),> 100 µM (inactive),16.4 µM (inactive),> 100 µM (inactive),60.7 µM (inactive),> 100 µM (inactive),> 100 µM (inactive),14 µM (inactive),> 100 µM (inactive),61.1 µM (inactive),> 100 µM (inactive),50.5 µM (inactive),–
CCCc1n[nH]c(CCC(=O)N(Cc2ccccc2)Cc2ccccc2)c1CC,> 100 µM (inactive),> 100 µM (inactive),> 100 µM (inactive),> 100 µM (inactive),> 100 µM (inactive),> 100 µM (inactive),–,> 100 µM (inactive),> 100 µM (inactive),> 100 µM (inactive),> 100 µM (inactive),> 100 µM (inactive),> 100 µM (inactive),> 100 µM (inactive),> 100 µM (inactive),> 100 µM (inactive),> 100 µM (inactive),> 100 µM (inactive),–
CCOC(=O)C12CCCC1(O)N(NC(=O)OC(C)(C)C)C(C)=C2C(=O)OC (stereo unspecified),–,> 100 µM (inactive),> 100 µM (inactive),> 100 µM (inactive),> 100 µM (inactive),> 100 µM (inactive),> 100 µM (inactive),> 100 µM (inactive),> 100 µM (inactive),–,> 100 µM (inactive),> 100 µM (inactive),> 100 µM (inactive),> 100 µM (inactive),> 100 µM (inactive),> 100 µM (inactive),> 10 µM (inactive),–,> 100 µM (inactive)
NC(N)NCCCc1cn2c(n1)C1CCCN1C(=O)C2Cc1ccccc1 (stereo unspecified),61 µM (inactive),> 100 µM (inactive),> 100 µM (inactive),> 100 µM (inactive),> 100 µM (inactive),> 100 µM (inactive),> 100 µM (inactive),> 100 µM (inactive),> 100 µM (inactive),> 100 µM (inactive),> 100 µM (inactive),> 100 µM (inactive),> 100 µM (inactive),> 100 µM (inactive),> 100 µM (inactive),> 100 µM (inactive),> 100 µM (inactive),> 100 µM (inactive),–
CCSC1=CC2(O)N(CCc3ccc(OC)c(OC)c3)C(=O)CC2(C(=O)OC)CC1=O (stereo unspecified),–,> 100 µM (inactive),> 100 µM (inactive),19.3 µM (inactive),21.1 µM (inactive),18.5 µM (inactive),23.4 µM (inactive),92.9 µM (inactive),19.5 µM (inactive),–,23.8 µM (inactive),16.6 µM (inactive),> 100 µM (inactive),19.5 µM (inactive),37.9 µM (inactive),19.1 µM (inactive),37.2 µM (inactive),41.2 µM (inactive),32.7 µM (inactive)
C[n+]1ccc(Nc2ccc(NC(=O)c3ccc(Nc4cc[n+](C)c5ccc([N+](=O)[O-])cc45)cc3[N+](=O)[O-])cc2)cc1,> 60.1 µM (inactive),50.4 µM (inactive),> 100 µM (inactive),27.4 µM (inactive),50.1 µM (inactive),47.8 µM (inactive),21.7 µM (inactive),> 59.2 µM (inactive),> 100 µM (inactive),> 83.8 µM (inactive),35.3 µM (inactive),22.8 µM (inactive),22 µM (inactive),31.3 µM (inactive),20.8 µM (inactive),> 39.7 µM (inactive),28.4 µM (inactive),23.3 µM (inactive),–
COc1ccc(/C=C/c2cc(OC)c(OC(C)=O)c(OC)c2)cc1,18.5 µM (inactive),21.6 µM (inactive),1.94 µM (inactive),33.7 µM (inactive),37.2 µM (inactive),–,17.5 µM (inactive),25.1 µM (inactive),–,–,20.3 µM (inactive),22 µM (inactive),24.8 µM (inactive),20.1 µM (inactive),–,–,9.68 µM (inactive),–,–
